Laboratory results reported in patent publication US9278958B2, “Anti-cancer compounds” (KATHOLIEKE UNIVERSITEIT LEUVEN, priority 2012, dated 2016).
Like-named read-outs stand apart in the source and are kept apart here.

Assays:
[1] = test system: CEM cells; experiment: Cytostatic assay, CEM; assay type: cell-based; conditions: for Ratio (tumor cell selectivity): ratio IC50 HeLa / IC50 CEM, Table 7
Experimental: (§1) To each well of a 96-well microtiter plate were added 5-7.5×10^4 cells and a given amount of the test compound. The cells were allowed to proliferate for 48 h to 96 h (depending on the nature of the cell line) at 37° C. in a humidified CO2-controlled atmosphere. At the end of the incubation period, the cells were counted in a Coulter Counter (Coulter Electronics Ltd, Harpenden Herts, United Kingdom).

[2] = test system: Molt4/C8 cells; experiment: Cytostatic assay, Molt4/C8; assay type: cell-based; conditions: Table 2
Experimental: as §1

[3] = test system: Sup T1 cells; experiment: Cytostatic assay, Sup T1; assay type: cell-based; conditions: Homo sapiens, Table 2, read-out: Cytostatic activity (μM) Sup T 1
Experimental: as §1

[4] = test system: MT-2 cells; experiment: Cytostatic assay, MT-2; assay type: cell-based; conditions: Homo sapiens, MT2; Table 2
Experimental: as §1

[5] = test system: C8166 cells; experiment: Cytostatic assay, C8166; assay type: cell-based; conditions: Homo sapiens, Table 2
Experimental: as §1

[6] = test system: HUT-78 cells; experiment: Cytostatic assay, HUT-78; assay type: cell-based; conditions: Homo sapiens, HuT78; Table 2
Experimental: as §1

[7] = test system: MT-4 cells; experiment: Cytostatic assay, MT-4; assay type: cell-based; conditions: Homo sapiens, MT4; Table 2
Experimental: as §1

[8] = test system: HL60, human leukemia cells; experiment: Cytostatic assay, HL-60; assay type: cell-based; conditions: Table 2
Experimental: as §1

[9] = test system: U937, human monocytic cells; experiment: Cytostatic assay, U937; assay type: cell-based; conditions: U-937, Table 2
Experimental: as §1

[10] = test system: THP-1, human monocytic cells; experiment: Cytostatic assay, THP-1; assay type: cell-based; conditions: Table 2
Experimental: as §1

[11] = test system: Raji, human B-lymphoma cells; experiment: Cytostatic assay, Raji; assay type: cell-based; conditions: Table 2
Experimental: as §1

[12] = test system: L1210 cells; experiment: Cytostatic assay, L1210; assay type: cell-based; conditions: Mus musculus, Table 2
Experimental: as §1

[13] = test system: OST TK- osteosarcoma cells; experiment: Cytostatic assay, OST TK-; assay type: cell-based; conditions: Homo sapiens; Table 3
Experimental: as §1

[14] = test system: MCF-7 mammary carcinoma cells; experiment: Cytostatic assay, MCF-7; assay type: cell-based; conditions: Homo sapiens, MCF7; Table 3
Experimental: as §1

[15] = test system: FM3A mammary carcinoma cells; experiment: Cytostatic assay, FM3A; assay type: cell-based, murine; conditions: Mus musculus, Table 3
Experimental: as §1

[16] = test system: HeLa cervix carcinoma cells; experiment: Cytostatic assay, HeLa; assay type: cell-based, human
Experimental: as §1

[17] = test system: Caki-1 kidney carcinoma cells; experiment: Cytostatic assay, Caki-1; assay type: cell-based; conditions: Homo sapiens, Table 3
Experimental: as §1

[18] = test system: Caki-2 kidney carcinoma cells; experiment: Cytostatic assay, Caki-2; assay type: cell-based; conditions: Homo sapiens, Table 3
Experimental: as §1

[19] = test system: 293T embryonic kidney cells; experiment: Cytostatic assay, 293T; assay type: cell-based; conditions: Homo sapiens, HEK-293T; Table 3
Experimental: as §1

[20] = test system: HT29 colorectal carcinoma cells; experiment: Cytostatic assay, HT29; assay type: cell-based; conditions: Homo sapiens, HT-29; Table 3
Experimental: as §1

[21] = test system: U87 glioma cells; experiment: Cytostatic assay, U87; assay type: cell-based; conditions: Homo sapiens, U-87 MG; Table 3
Experimental: as §1

[22] = test system: HEL embryonic lung fibroblast cells; experiment: Cytostatic assay, HEL; assay type: cell-based; conditions: Homo sapiens, Table 3
Experimental: as §1

[23] = test system: BAEC aortic endothelial cells; experiment: Cytostatic assay, BAEC; assay type: cell-based, bovine; conditions: Bos taurus, Table 3
Experimental: as §1

[24] = test system: PC3 (rega) prostate cancer cells; experiment: Cytostatic assay, PC3 (rega); assay type: cell-based; conditions: Table 4
Experimental: as §1

[25] = test system: BPH-1 (UZ); experiment: Cytostatic assay, BPH-1 (UZ); assay type: cell-based; conditions: Homo sapiens, Table 4
Experimental: as §1

[26] = test system: DU145 (UZ) prostate cancer cells; experiment: Cytostatic assay, DU145 (UZ); assay type: cell-based; conditions: Homo sapiens, DU-145; Table 4
Experimental: as §1

[27] = test system: PC-3 (UZ) prostate cancer cells; experiment: Cytostatic assay, PC-3 (UZ); assay type: cell-based; conditions: Table 4
Experimental: as §1

[28] = test system: LNCaP (UZ) prostate cancer cells; experiment: Cytostatic assay, LNCaP (UZ); assay type: cell-based; conditions: Homo sapiens, Table 4
Experimental: as §1

[29] = test system: PNT1A (UZ) prostate cells; experiment: Cytostatic assay, PNT1A (UZ); assay type: cell-based; conditions: Homo sapiens, Table 4
Experimental: as §1

[30] = test system: 22Rv1 (UZ) prostate cancer cells; experiment: Cytostatic assay, 22Rv1 (UZ); assay type: cell-based; conditions: Homo sapiens, Table 4
Experimental: as §1

[31] = test system: PLC/PRF/5 hepatoma cells; experiment: Cytostatic assay, PLC/PRF/5; assay type: cell-based; conditions: Homo sapiens, Table 4
Experimental: as §1

[32] = test system: HepG2C3A hepatoma cells; experiment: Cytostatic assay, HepG2C3A; assay type: cell-based; conditions: Homo sapiens, HepG2/C3A; Table 4
Experimental: as §1

[33] = test system: Huh-7 hepatoma cells; experiment: Cytostatic assay, Huh-7; assay type: cell-based; conditions: Homo sapiens, Table 4
Experimental: as §1

[34] = Homo sapiens, CCRF-CEM, Table 1a, read-out: IC50 μM (CEM)
[35] = Homo sapiens, CCRF-CEM, Table 2, read-out: Cytostatic activity (μM) CEM
[36] = Homo sapiens, Table 3, read-out: Cytostatic activity (μM) Hela
[37] = Homo sapiens, CCRF-CEM, CEM cells, Table 7, 5-arylthiomethyl-substituted 2-amino-3-carboxymethylthiophenes, read-out: IC50 (μM) CEM
[38] = Homo sapiens, HeLa cells, Table 7, 5-arylthiomethyl-substituted 2-amino-3-carboxymethylthiophenes, read-out: IC50 (μM) HeLa

SMILES	IC50 [1, 34] [µM]	IC50 [1, 35] [µM]	IC50 [2] [µM]	IC50 [3] [µM]	IC50 [4] [µM]	IC50 [5] [µM]	IC50 [6] [µM]	IC50 [8] [µM]	IC50 [9] [µM]	IC50 [10] [µM]	IC50 [11] [µM]	IC50 [13] [µM]	IC50 [14] [µM]	IC50 [15] [µM]	IC50 [16, 36] [µM]	IC50 [17] [µM]	IC50 [18] [µM]	IC50 [7] [µM]	IC50 [19] [µM]	Ratio (tumor cell selectivity) [1]	also measured
COC(=O)c1cc(CSc2ccccc2)sc1N [TJ4, Methyl 2-amino-5-(2-(phenyl)sulfanylmethyl)thiophene-3-carboxylate]																				83	IC50 ([1]; CEM cells, Table 7, 5-arylthiomethyl-substituted 2-amino-3-carboxymethylthiophenes, read-out: IC50 (μM) CEM): 1.3 µM; IC50 ([1]; Table 1b, read-out: IC50 (μM) (CEM)): 1.3 ± 0.6 µM; IC50 ([16]; HeLa cells, Table 7, 5-arylthiomethyl-substituted 2-amino-3-carboxymethylthiophenes, read-out: IC50 (μM) HeLa): 108 µM; IC50 ([16]; Table 1b, read-out: IC50 (μM) (HeLa)): 108 ± 7 µM
COC(=O)c1cc(CSc2ccc(OC)cc2)sc1N [TJ130, Methyl 2-amino-5-((4-methoxyphenylthio)methyl)thiophene-3-carboxylate]																				23	IC50 [1, 37]: 3.9 µM; IC50 ([1]; Homo sapiens, CCRF-CEM, Table 1b, read-out: IC50 (μM) (CEM)): 3.9 ± 1.4 µM; IC50 [16, 38]: 88 µM; IC50 ([16]; Homo sapiens, Table 1b, read-out: IC50 (μM) (HeLa)): 88 ± 10 µM
COC(=O)c1cc(CSCCc2ccccc2)sc1N [TJ187, Methyl 2-amino-5-(phenethylthiomethyl)thiophene-3-carboxylate]																				62	IC50 [1, 37]: 1.2 µM; IC50 [16, 38]: 74 µM
COC(=O)c1cc(CSc2ccc(-c3ccccc3)cc2)sc1N [TJ184, Methyl 2-amino-5-((biphenyl-4-ylthio)methyl)thiophene-3-carboxylate]																				46	IC50 [1, 37]: 1.2 µM; IC50 [16, 38]: 55 µM

Further lines, with some results ahead:

IC50 [1, 34] [µM]	IC50 [1, 35] [µM]	IC50 [2] [µM]	IC50 [3] [µM]	IC50 [4] [µM]	IC50 [5] [µM]	IC50 [6] [µM]	IC50 [8] [µM]	IC50 [9] [µM]	IC50 [10] [µM]	IC50 [11] [µM]	IC50 [13] [µM]	IC50 [14] [µM]	IC50 [15] [µM]	IC50 [16, 36] [µM]	IC50 [17] [µM]	IC50 [18] [µM]	SMILES	IC50 [7] [µM]	IC50 [19] [µM]	Ratio (tumor cell selectivity) [1]	also measured
72	72 ± 6.4	54 ± 6	73 ± 13	31 ± 29	122 ± 12	120 ± 44	46 ± 25	80 ± 3.5	26 ± 2.8	58 ± 13	71 ± 7.8	87 ± 21	86 ± 5.6	41 ± 7.1	87 ± 21	57 ± 24	CCOC(=O)c1c(N)sc(CCc2ccc(OC)cc2)c1C(=O)OCC [TR547, 2-Amino-5-[2-(4-methoxy-phenyl)-ethyl]-thiophene-3,4-dicarboxylic acid diethyl ester]	38 ± 3.5	58 ± 2.8		IC50 [12]: 105 ± 48 µM; IC50 [20]: 46 ± 3.5 µM; IC50 [21]: 81 ± 27 µM; IC50 [22]: 44 ± 3.5 µM; IC50 [23]: 82 ± 26 µM; IC50 [24]: 38 ± 12 µM; IC50 [25]: 65 ± 9.2 µM; IC50 [26]: 89 ± 16 µM; IC50 [27]: 31 ± 5.7 µM; IC50 [28]: 19 ± 10 µM; IC50 [29]: 56 µM; IC50 [30]: 31 ± 4.2 µM; IC50 [31]: 75 ± 35 µM; IC50 [32]: 48 ± 16 µM; IC50 [33]: 51 ± 14 µM
44	44	47 ± 16	32 ± 15	37 ± 29	110 ± 31	21 ± 1.4	18 ± 4.9	68 ± 0.7	9 ± 0.6	49 ± 13	34 ± 23	11 ± 8.5	48 ± 3.5	38 ± 11	57 ± 38	52 ± 17	COC(=O)c1c(N)sc(CCc2cc(OC)ccc2OC)c1C [TR599, 2-Amino-5-[2-(2,5-dimethoxy-phenyl)-ethyl]-4-methyl-thiophene-3-carboxylic acid methyl ester]	58 ± 21	52 ± 2.1		IC50 [20]: 47 ± 2.1 µM; IC50 [21]: 41 ± 4.9 µM; IC50 [22]: 46 ± 3.5 µM; IC50 [23]: 52 ± 46 µM; IC50 [24]: 24 ± 12 µM; IC50 [25]: 43 ± 3.5 µM; IC50 [26]: 35 ± 16 µM; IC50 [27]: 25 ± 5.7 µM; IC50 [28]: 8.7 ± 4.7 µM; IC50 [29]: 46 ± 2.1 µM; IC50 [30]: 28 ± 19 µM; IC50 [31]: 36 ± 2.8 µM; IC50 [32]: 34 ± 22 µM; IC50 [33]: 52 ± 7.8 µM
42	42 ± 1.4	28 ± 6	38 ± 25	14 ± 2.8	102 ± 1.4	109 ± 82	21	85 ± 2.8	25 ± 5.7	45 ± 11	32 ± 18	44 ± 28	59 ± 11	39 ± 9.2	8.8 ± 3.1	24 ± 9.2	COC(=O)c1cc(-c2cc(OC)ccc2OC)sc1N [TR601, 2-Amino-5-(2,5-dimethoxy-phenyl)-thiophene-3-carboxylic acid methyl ester]	50 ± 25	43 ± 16		IC50 [20]: 42 µM; IC50 [21]: 25 µM; IC50 [22]: 17 ± 5.7 µM; IC50 [23]: 26 ± 7.1 µM; IC50 [24]: 23 ± 14 µM; IC50 [25]: 31 µM; IC50 [26]: 37 ± 2.1 µM; IC50 [27]: 25 µM; IC50 [28]: 21 ± 8.5 µM; IC50 [29]: 38 ± 5.7 µM; IC50 [30]: 11 ± 4.8 µM; IC50 [31]: 26 ± 0.71 µM; IC50 [32]: 22 ± 18 µM; IC50 [33]: 49 ± 19 µM
